# According to US11230526B1, “Cylcoalkenyl derivatives useful as agonists of the GPR120 and/or GPR40 receptors” (Janssen Pharmaceutica NV, priority 2018, dated 2022):
# Assays:
# Assay type in all cases: cell-based
# Human GPR120 short form = target: T1, Human GPR120 short form (Homo sapiens, UniProt Q5NUL3); assay: Human GPR120 calcium flux assay, Procedure Calcium B (4200 cells/well)
# T1 construct: expressed in transfected cells
# T1 sequence (Q5NUL3 1-361): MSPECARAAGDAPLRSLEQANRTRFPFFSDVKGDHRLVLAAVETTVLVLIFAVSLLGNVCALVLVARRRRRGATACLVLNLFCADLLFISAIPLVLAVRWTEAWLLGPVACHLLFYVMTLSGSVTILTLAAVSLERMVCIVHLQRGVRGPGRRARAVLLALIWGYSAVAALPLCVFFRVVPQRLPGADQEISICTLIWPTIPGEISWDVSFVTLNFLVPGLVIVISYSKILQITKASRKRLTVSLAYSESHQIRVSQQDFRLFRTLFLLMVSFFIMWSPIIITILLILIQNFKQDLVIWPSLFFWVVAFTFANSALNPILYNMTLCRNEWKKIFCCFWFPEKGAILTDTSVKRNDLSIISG
# In short: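 Agonist EC50 came from a four-parameter fit of RFU (Fmax−Fmin) read over 300 s on FLIPR. Cells were HEK293 stably transfected with human GPR120 (NM_001195755.1) at 4200 per well, serum-starved 1 h and loaded with Fluo-4 NW dye with probenecid before ligand addition.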
# [1] = target: T2, long form of human GPR120 (Homo sapiens, UniProt Q5NUL3); assay: Human GPR120 DiscoveRx PathHunter Beta-Arrestin assay, Procedure β-arrestin A
# T2 construct: host or cells: PathHunter CHO-K1 GPR120 β-Arrestin Cell Line
# Description: Human GPR120 DiscoveRx PathHunter® Beta-Arrestin Assay Assay Principle:
# The binding of an agonist (medium/long chain fatty acids or small molecule agonists) to the G-protein-coupled receptor GPR120 activates phospholipase C, leading to release of intracellular Ca^+2 through the generation of inositol 1,4,5-trisphosphate (InsP3 or IP3). GPR120 activation can also trigger intracellular signaling via recruitment of Beta-Arrestin. In the present method, agonist-induced activation of the human GPR120 receptor is monitored through the use of PathHunter® CHO-K1 GPR120 Beta-Arrestin Cell Line engineered by DiscoveRx, as detailed below. The cell lines are designed to co-express both the ProLink/Enzyme Donor (PK)-tagged GPCR and the Enzyme […] (EA)-tagged Beta-Arrestin fusion proteins. Upon GPR120 receptor stimulation/activation, the EA-tagged Beta-Arrestin portion is translocated to the tagged receptor, where the two enzyme fragments are brought within close proximity. Under these conditions, these fragments can interact and form an active Beta-gal enzyme complex through Enzyme Fragment Complementation (EFC). This active Beta-gal complex can enzymatically hydrolyse the substrate to produce a detectable light signal; therefore, activation as a function of agonist concentration can be expressed as an EC50 value to determine relative compound activities. This in vitro assay therefore serves to assess compound agonist activity of the GPR120.
# In Procedure β-arrestin A, the cell used were PathHunter® CHO-K1 GPR120 β-Arrestin Cell Line, expressing the long form of human GPR120 (Genbank accession number NM_181745), with 3000 cells per well.
# The selected CHO-K1 GPR120 β-Arrestin cells were cultured in Ham's F12 media supplemented with 10% fetal bovine serum (FBS), 1% Glutamine, 1×p/s, 800 μg/mL G418 and 300 μg/mL Hygromycin B (for selection). Cell stocks were maintained and grown in a sub-confluent state using standard cell culture procedures. The day before the experiment, the cells were harvested with non-enzymatic cell dissociation buffer and re-suspended in complete growth media at the desired concentration. A Corning 384-plate was then seeded with the proper number of cells in a volume of 25 μL, per well. The seeded plates were incubated overnight at 37° C.
# On the day of the experiment, the Assay Buffer containing (a) HBSS with Ca^++ and Mg^++, (b) 20 mM HEPES, and (c) 0.1% BSA stabilizer (pH 7.4) was prepared. The growth medium was gently removed from the cell plates and 20 μL of Assay Buffer added to each well. The plate was then incubated at 37° C. for 60 min. Test compounds were serially diluted in Assay Buffer to desired concentrations (more particularly to one or more of the following μM concentrations: 25, 12.5, 6.25, 3.12, 1.56, 0.78, 0.39, 0.19, 0.10, 0.05, 0.02, 0.01). Five μL of compound dilution was then added to each well and the plate incubated at 37° C. for 90 min. The detection reagents were prepared according to the manufacture's instruction. Twelve μL of the detection reagents were added to each well and the plate incubated at room temperature for 60 min.
# The plates were read on an EnVision instrument, using Protocol name: Luminescence, Plate type: 384 Costar, Measurement height: 3 mm, Measurement time: 1 s, Aperture: 384 Plate aperture. The % Activity relative to the positive control was calculated using the following equation:
# The % Activity values were plotted versus the concentration of test compound and fitted to a sigmoidal dose-response curve with a Hill slope=1 (fixed value) using nonlinear regression with GraphPad Prism 5.0 to calculate the EC50 values. The Fitting Equation was: Y=Bottom+(Top-Bottom)/(1+10^((Log EC50−X)*HillSlope)), where X is the log of the concentration and Y is the response.
# human GPR40 = target: T3, human GPR40 (Homo sapiens, UniProt O14842); assay: GPR40 calcium flux assay, human GPR40; conditions: HEK293 cells stably expressing GPR40; table does not say human or rat
# T3 construct: expressed in transfected cells
# In short: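 Cells preincubated 1 h at 37° C. in HBSS, 20 mM HEPES, 0.1% BSA, then Fluo 8 calcium dye 30 min at 37° C. and 15 min at room temperature.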
# T3 sequence (O14842 whole entry): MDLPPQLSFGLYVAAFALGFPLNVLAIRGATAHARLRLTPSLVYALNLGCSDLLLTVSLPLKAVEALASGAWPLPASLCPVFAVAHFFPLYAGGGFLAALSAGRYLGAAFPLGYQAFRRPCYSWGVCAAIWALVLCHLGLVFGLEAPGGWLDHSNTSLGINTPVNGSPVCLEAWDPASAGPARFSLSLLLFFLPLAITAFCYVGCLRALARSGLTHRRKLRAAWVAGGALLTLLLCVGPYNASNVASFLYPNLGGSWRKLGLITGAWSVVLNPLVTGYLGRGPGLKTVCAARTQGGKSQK
# T2 sequence (Q5NUL3 1-377 isoform Q5NUL3-1): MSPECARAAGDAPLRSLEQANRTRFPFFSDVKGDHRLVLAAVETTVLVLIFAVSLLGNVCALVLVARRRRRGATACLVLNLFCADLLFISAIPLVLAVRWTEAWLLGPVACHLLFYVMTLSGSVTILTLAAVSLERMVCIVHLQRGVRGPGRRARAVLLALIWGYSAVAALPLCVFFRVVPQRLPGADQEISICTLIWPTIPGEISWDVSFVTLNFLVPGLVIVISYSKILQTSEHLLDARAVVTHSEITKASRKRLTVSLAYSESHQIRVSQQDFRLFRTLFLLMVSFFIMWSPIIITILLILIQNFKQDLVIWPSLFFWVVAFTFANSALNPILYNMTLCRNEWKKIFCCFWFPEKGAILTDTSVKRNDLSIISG
# T2 sequence (P32121 whole entry partner): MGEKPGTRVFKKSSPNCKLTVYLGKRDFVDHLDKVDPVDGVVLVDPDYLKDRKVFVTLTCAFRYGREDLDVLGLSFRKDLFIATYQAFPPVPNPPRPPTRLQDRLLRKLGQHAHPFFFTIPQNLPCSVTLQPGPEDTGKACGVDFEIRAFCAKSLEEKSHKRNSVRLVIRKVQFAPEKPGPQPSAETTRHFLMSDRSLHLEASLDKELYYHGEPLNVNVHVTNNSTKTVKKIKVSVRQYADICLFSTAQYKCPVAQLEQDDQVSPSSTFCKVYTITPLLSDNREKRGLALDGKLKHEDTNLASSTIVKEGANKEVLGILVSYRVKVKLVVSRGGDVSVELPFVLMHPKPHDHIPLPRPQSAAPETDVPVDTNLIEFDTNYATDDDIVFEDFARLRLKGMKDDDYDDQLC
EC50 (Human GPR120 short form) [µM],EC50 [1] [µM],EC50 (human GPR40) [µM],Compound
0.727,1.02,–,"Cc1ncc(C2=C(COc3c(F)cc(CCC(=O)O)cc3F)CC(F)(F)CC2)s1 [Compound 554, 3-[4-[[5,5-difluoro-2-(2-methylthiazol-5-yl)cyclohexen-1-yl]methoxy]-3,5-difluoro-phenyl]Propanoic Acid]"
0.184,0.435,–,"Cc1c(CCC(=O)O)ccc(OCC2=C(c3cccs3)CC(F)(F)C2)c1C [Compound 200, 3-[4-[[4,4-difluoro-2-(2-thienyl)cyclopenten-1-yl]methoxy]-2,3-dimethyl-phenyl]Propanoic Acid]"
0.155,0.476,–,"Cc1c(CCC(=O)O)ccc(OCC2=C(c3ccco3)CCC(F)(F)C2)c1C [Compound 552, 3-[4-[[5,5-difluoro-2-(2-furyl)cyclohexen-1-yl]methoxy]-2,3-dimethyl-phenyl]Propanoic Acid]"
0.053,0.073,–,"Cc1c(CCC(=O)O)ccc(OCC2=C(c3ccc(F)c(F)c3)CC(F)(F)C2)c1C [Compound 177, 3-[4-[[2-(3,4-difluorophenyl)-4,4-difluoro-cyclopenten-1-yl]methoxy]-2,3-dimethyl-phenyl]Propanoic Acid]"
0.062,0.32,–,"Cc1c(CCC(=O)O)ccc(OCC2=C(c3cccc(F)c3)CC(F)(F)C2)c1C [Compound 192, 3-[4-[[4,4-difluoro-2-(3-fluorophenyl)cyclopenten-1-yl]methoxy]-2,3-dimethyl-phenyl]Propanoic Acid]"
0.106,0.211,–,"Cc1c(CCC(=O)O)ccc(OCC2=C(c3ccc(Cl)c(F)c3)CC(F)(F)C2)c1C [Compound 171, 3-[4-[[2-(4-chloro-3-fluoro-phenyl)-4,4-difluoro-cyclopenten-1-yl]methoxy]-2,3-dimethyl-phenyl]Propanoic Acid]"
0.873,3.84,–,"Cc1c(CCC(=O)O)ccc(OCC2=C(c3ccc(Cl)c(F)c3)CCC(F)(F)C2)c1C [Compound 526, 3-[4-[[2-(4-chloro-3-fluoro-phenyl)-5,5-difluoro-cyclohexen-1-yl]methoxy]-2,3-dimethyl-phenyl]Propanoic Acid]"
0.12,0.237,–,"Cc1c(CCC(=O)O)ccc(OCC2=C(c3ccc(Cl)s3)CCC(F)(F)C2)c1C [Compound 563, 3-[4-[[2-(5-chloro-2-thienyl)-5,5-difluoro-cyclohexen-1-yl]methoxy]-2,3-dimethyl-phenyl]Propanoic Acid]"
0.442,1.05,–,"Cc1cc(CCC(=O)O)ccc1OCC1=C(c2cncs2)CC(F)(F)C1 [Compound 190, 3-[4-[(4,4-difluoro-2-thiazol-5-yl-cyclopenten-1-yl)methoxy]-3-methyl-phenyl]Propanoic Acid]"
0.149,0.302,–,"Cc1c(CCC(=O)O)ccc(OCC2=C(c3cccs3)CCC(F)(F)C2)c1C [Compound 557, 3-[4-[[5,5-difluoro-2-(2-thienyl)cyclohexen-1-yl]methoxy]-2,3-dimethyl-phenyl]Propanoic Acid]"
0.388,1.8,–,"Cc1c(CCC(=O)O)ccc(OCC2=C(c3cncs3)CCC(F)(F)C2)c1C [Compound 547, 3-[4-[(5,5-difluoro-2-thiazol-5-yl-cyclohexen-1-yl)methoxy]-2,3-dimethyl-phenyl]Propanoic Acid]"
0.977,1.66,–,"Cc1c(CCC(=O)O)ccc(OCC2=C(c3cnn(C)c3)CCC(F)(F)C2)c1C [Compound 545, 3-[4-[[5,5-difluoro-2-(1-methylpyrazol-4-yl)cyclohexen-1-yl]methoxy]-2,3-dimethyl-phenyl]Propanoic Acid]"
0.885,0.498,–,"Cc1cc(CCC(=O)O)ccc1OCC1=C(c2ccc(Cl)c(F)c2)CCC(F)(F)C1 [Compound 527, 3-[4-[[2-(4-chloro-3-fluoro-phenyl)-5,5-difluoro-cyclohexen-1-yl]methoxy]-3-methyl-phenyl]Propanoic Acid]"
0.238,0.409,–,"O=C(O)CCc1cc(F)c(OCC2=C(c3cccs3)CCC(F)(F)C2)c(F)c1 [Compound 559, 3-[4-[[5,5-difluoro-2-(2-thienyl)cyclohexen-1-yl]methoxy]-3,5-difluoro-phenyl]Propanoic Acid]"
0.202,0.363,–,"Cc1c(CCC(=O)O)ccc(OCC2=C(c3ccc(Cl)cc3)CC(F)(F)CC2)c1C [Compound 568, 3-[4-[[2-(4-chlorophenyl)-4,4-difluoro-cyclohexen-1-yl]methoxy]-2,3-dimethyl-phenyl]Propanoic Acid]"
0.071,0.12,–,"Cc1ccc(C2=C(COc3ccc(CCC(=O)O)cc3C)CC(F)(F)CC2)s1 [Compound 561, 3-[4-[[5,5-difluoro-2-(5-methyl-2-thienyl)cyclohexen-1-yl]methoxy]-3-methyl-phenyl]Propanoic Acid]"
0.089,0.159,–,"Cc1cc(CCC(=O)O)ccc1OCC1=C(c2ccccc2)CCC(F)(F)C1 [Compound 538, 3-[4-[(5,5-difluoro-2-phenyl-cyclohexen-1-yl)methoxy]-3-methyl-phenyl]Propanoic Acid]"
0.743,0.996,–,"Cc1c(CCC(=O)O)ccc(OCC2=C(c3ccc(Cl)cc3)CC(C#N)C2)c1C (stereo not shown) [Compound 196, 3-[4-[[2-(4-chlorophenyl)-4-cyano-cyclopenten-1-yl]methoxy]-2,3-dimethyl-phenyl]Propanoic Acid]"
0.117,0.287,–,"Cc1c(CCC(=O)O)ccc(OCC2=C(c3ccc(F)c(F)c3)CCC(F)(F)C2)c1C [Compound 531, 3-[4-[[2-(3,4-difluorophenyl)-5,5-difluoro-cyclohexen-1-yl]methoxy]-2,3-dimethyl-phenyl]Propanoic Acid]"
0.562,–,0.428,"CC1CCC(c2ccc(Cl)cc2)=C1COc1ccc(CCC(=O)O)c(C(F)(F)F)c1 (stereo not shown) [Compound 336, 3-[4-[[2-(4-chlorophenyl)-5-methyl-cyclopenten-1-yl]methoxy]-2-(trifluoromethyl)phenyl]Propanoic Acid]"
0.866,–,0.746,"Cc1cc(OCC2=C(c3ccc(Cl)cc3)C(C)CC2)c(F)cc1CCC(=O)O (stereo not shown) [Compound 317, 3-[4-[[2-(4-chlorophenyl)-3-methyl-cyclopenten-1-yl]methoxy]-5-fluoro-2-methyl-phenyl]Propanoic Acid]"
> 5,–,> 5,O=C(O)CCc1ccc(OCC2=C(c3ccc(Cl)cc3)CCC2)cc1 [Compound 107]
1.15,–,0.133,"CCCCC1=C(COc2ccc(CCC(=O)O)c(C(F)(F)F)c2)CCC1 [Compound 370, 3-[4-[(2-butylcyclopenten-1-yl)methoxy]-2-(trifluoromethyl)phenyl]Propanoic Acid]"
